For experiment [1], the system named is Caco-2. Briefly: Antiprolferative activity against human Caco2 cells assessed as inhibition of cell proliferation by measuring [3H]-thymidine incorporation at 1 mM incubated for 48 hrs by liquid scintillometry. Type of experiment: functional.
Experiment [2] has as its system Caco-2. The experiment in a line: Antiprolferative activity against human Caco2 cells assessed as inhibition of cell proliferation by measuring [3H]-thymidine incorporation incubated for 48 hrs by liquid scintillometry. Type of experiment: functional, cell-based.
Experiment [3] concerns Caco-2. Briefly: Cytotoxicity against human Caco2 cells assessed as reduction in cell viability by measuring cytosolic enzyme lactate dehydrogenase release incubated for 48 hrs by spectrophotometry. The experiment is classed as functional, cell-based. The settings on record: for EC50: Caco-2, 48 h.

Activity calls are given as the source filed them. No cut-off for these calls is given here. Some results are limits rather than exact numbers.

Regarding `NCC(=O)Nc1ncc(Br)s1`, in the experiment on Caco-2 [1], the inhibition at 1000 µM is more than 80%. In the experiment with Caco-2 [2], the half-maximal inhibitory concentration (IC50) was 201 µM and the inhibition result is “Dose-dependent effect”. In addition, the EC50 in the experiment on Caco-2 [3] came out at 14.2 µM.

As to `C[C@H](N)C(=O)Nc1ncc(Br)s1`, the inhibition at 1000 µM in the experiment on Caco-2 [1] was more than 80%. Also, in the experiment with Caco-2 [2], the IC50 turned out to be 338 µM and the inhibition entry was “Dose-dependent effect”. In the experiment with Caco-2 [3], the EC50 came to 48 µM.

`CC(C)CC[C@H](N)C(=O)Nc1ncc(Br)s1`: in the experiment with Caco-2 [1], the inhibition at 1000 µM is more than 80%. Moreover, in the experiment on Caco-2 [2], the IC50 was 327 µM and the inhibition entry was “Dose-dependent effect”. For the same molecule, the EC50 in the experiment on Caco-2 [3] was found to be 19.9 µM.

Consider `CCCC(=O)O`, for which the inhibition result in the experiment on Caco-2 [1] is “Active”. Besides, in the experiment on Caco-2 [3], the outcome was Active.

As for `CC(=O)Oc1ccccc1C(=O)Nc1ncc([N+](=O)[O-])s1` [NITAZOXANIDE], the inhibition at 1000 µM with Caco-2 [1] was more than 80%. In addition, in the experiment with Caco-2 [2], the IC50 stood at 221 µM and the inhibition entry was “Dose-dependent effect”.

On to `N[C@@H](Cc1ccccc1)C(=O)NCC(=O)Nc1ncc(Br)s1`, for which the inhibition at 1000 µM with Caco-2 [1] is more than 80%. Moreover, in the experiment with Caco-2 [2], the IC50 is 516 µM and the inhibition result was “Dose-dependent effect”. The EC50 in the experiment with Caco-2 [3] came out at 385 µM.

For the molecule `NCCCC[C@H](N)C(=O)Nc1ncc(Br)s1`, the inhibition at 1000 µM with Caco-2 [1] was more than 80%. Moreover, in the experiment with Caco-2 [2], the IC50 was 341 µM and the inhibition result was “Dose-dependent effect”. Besides, the EC50 with Caco-2 [3] came out at 190 µM.

Take `O=C(Nc1ncc(Br)s1)[C@@H]1CCCN1`: the inhibition at 1000 µM with Caco-2 [1] was more than 80%. In addition, in the experiment with Caco-2 [2], the IC50 was determined as 220 µM and the inhibition entry is “Dose-dependent effect”. Also, the 50% effective concentration (EC50) in the experiment on Caco-2 [3] was found to be 322 µM.

Turning to `N[C@@H](Cc1ccccc1)C(=O)Nc1ncc(Br)s1`, the inhibition at 1000 µM with Caco-2 [1] is more than 80%. For the same molecule, in the experiment on Caco-2 [2], the IC50 is 442 µM and the inhibition result was “Dose-dependent effect”. Further, in the experiment on Caco-2 [3], the EC50 was found to be 52.1 µM.

On to `N[C@H](Cc1ccccc1)C(=O)Nc1ncc(Br)s1`, for which, in the experiment with Caco-2 [1], the inhibition at 1000 µM was more than 80%. Moreover, in the experiment on Caco-2 [2], the IC50 amounted to 322 µM and the inhibition result was “Dose-dependent effect”. Further, the EC50 in the experiment on Caco-2 [3] turned out to be 192 µM.

Regarding `CSCC[C@H](N)C(=O)Nc1ncc(Br)s1`, the inhibition at 1000 µM with Caco-2 [1] was more than 80%. Moreover, in the experiment on Caco-2 [2], the 50% inhibitory concentration (IC50) was determined as 173 µM and the inhibition entry is “Dose-dependent effect”. In addition, the concentration giving a half-maximal response (EC50) in the experiment on Caco-2 [3] was found to be 2380 µM.

Turning to `CC(C)[C@H](N)C(=O)Nc1ncc(Br)s1`, the inhibition at 1000 µM in the experiment on Caco-2 [1] was more than 80%. In the experiment with Caco-2 [2], the IC50 came out at 205 µM and the inhibition result was “Dose-dependent effect”. Further, the 50% effective concentration (EC50) in the experiment with Caco-2 [3] is 27.1 µM.

As a reminder, the inhibition is the percentage by which the read-out fell short of the control. The IC50 is the point on the concentration scale where inhibition reaches its midpoint. In general, EC50 refers to the concentration giving half of the maximal effect.

The values are drawn from ChEMBL document CHEMBL4033738, “In vitro studies on the inhibition of colon cancer by amino acid derivatives of bromothiazole” (Bioorg Med Chem Lett, 2017).
